This passage reports IC50 results from patent US20250214993A1, “AROMATIC RING COMPOUND AND USE THEREOF” (SHANGHAI SHIJIANG BIOTECHNOLOGY CO., LTD, priority 2022, published 2025).

For orientation: IC50 means the concentration that gives 50% inhibition. The low end stands for higher potency, the high end for lower potency.

Molecules are shown by their SMILES.

Experiment [1] deals with Con-NCI-H82 cell. As to the kind of experiment: Cell viability (Promega CellTiter-Glo, intracellular ATP), IC50 on Con-NCI-H82 cell. The experiment is classed as cell-based. The following applies: Homo sapiens; normal untreated NCI-H82 cell (control). An excerpt: (§1) The expression of NNMT protein in NCI-H82 cell was overexpressed by inserting the NNMT gene into NCI-H82 cell using a viral vector, and the NNMT protein-overexpressing NCI-H82 cell (ov-NNMT NCI-H82 cell) was obtained. The normal and untreated NCI-H82 cell (Con-NCI-H82 cell) was used as control. The expressing content of NNMT protein in the ov-NNMT NCI-H82 cell and Con-NCI-H82 cell was detected using Western Blot assay (as shown in FIG. 1), it could be seen from FIG. 1 that the NNMT protein was overexpressed in the ov-NNMT NCI-H82 cell compared with the expression level of NNMT protein in the Con-NCI-H82 cell.
(§2) The cell viability was detected using the Promega CellTiter-Glo kit which reflected cell viability by measuring intracellular ATP content. The Con-NCI-H82 cell and ov-NNMT NCI-H82 cell was cultured in 10% fetal bovine serum-containing RPMI1640 medium (+P/S).

The test system of experiment [2] is ov-NNMT NCI-H82 cell. The experiment is described as follows: Cell viability (Promega CellTiter-Glo, intracellular ATP), IC50 on NNMT-overexpressing NCI-H82 cell. The experiment is classed as cell-based. To be noted: Homo sapiens; NCI-H82 cell overexpressing NNMT protein.
Text: as §1, §2

In the case of `Cc1ccc(C(=O)C[n+]2ccc3c(c2)CCN3c2ccccc2)cc1` [AB24994], the IC50 in experiment [1] worked out at 810 nM; in experiment [2], 2.99 µM.

Take `O=C(C[n+]1ccc2c(c1)CCC(c1ccccc1)N2)c1ccc(C(F)(F)F)cc1` (stereo not drawn) [AB27102]: the IC50 in experiment [1] stood at 1160 nM; in experiment [2], 4.59 µM.

Consider `O=C1c2ccc(OC(F)(F)F)cc2CCC1[n+]1ccc2c(c1)CCC(c1ccccc1)N2` (stereo not drawn) [AB27105], for which the IC50 in experiment [1] was 874 nM; in experiment [2] it was 5.43 µM.

On to `O=C1c2ccc(C(F)(F)F)cc2CCC1[n+]1ccc(NCc2ccccc2)cc1` (stereo not drawn) [AB27110], for which the IC50 in experiment [1] amounted to 996 nM; in experiment [2], 5.04 µM.

Take `Cc1cccc(-c2c[nH]c3c[n+](CC(=O)c4ccc(OC(F)(F)F)cc4)ccc23)c1` [AB27121]: the values for the IC50 in experiment [1] and in experiment [2] were 2260 nM and 6.45 µM, respectively.

As to `O=C1c2cc(Cl)ccc2CCC1[n+]1ccc2c(c1)CCC(c1ccccc1)N2` (stereo not drawn) [AB27134], the IC50 in experiment [1] was determined as 3350 nM; in experiment [2] it was 12.4 µM.

Consider `O=C1c2cc(OC(F)(F)F)ccc2CCC1[n+]1cnc2c(c1)CCC(c1ccccc1)N2` (stereo not drawn) [AB27136], for which the IC50 turned out to be 5610 nM in experiment [1] and 14.6 µM in experiment [2].

Turning to `Cc1ccc2c(c1)C(=O)C([n+]1cnc3c(c1)CCC(c1ccccc1)N3)CC2` (stereo not drawn) [AB27137], the IC50 worked out at 4360 nM in experiment [1] and 12 µM in experiment [2].

`O=C(C[n+]1ccc2c(c1)CCC(c1ccccc1)N2)c1cccc(C(F)(F)F)c1` (stereo not drawn) [AB27146]: the IC50 in experiment [1] was 1710 nM; in experiment [2] it was 6.79 µM.

As to `O=C(C[n+]1ccc2c(c1)CCC(c1ccccc1)N2)c1cccc(OC(F)(F)F)c1` (stereo not drawn) [AB27147], the IC50 amounted to 1390 nM in experiment [1] and 5.48 µM in experiment [2].

As to `CCCn1ccc2c[n+](C3CCc4ccc(C(F)(F)F)cc4C3=O)ccc21` (stereo not drawn) [AB27150], the IC50 in experiment [1] stood at 632 nM; in experiment [2], 3.17 µM.

Consider `CC(C)n1ccc2c[n+](C3CCc4ccc(C(F)(F)F)cc4C3=O)ccc21` (stereo not drawn) [AB27151], for which the results for the IC50 in experiment [1] and in experiment [2] were 1040 nM and 2.98 µM, respectively.

On to `CC(C)n1ccc2c[n+](C3CCc4ccc(OC(F)(F)F)cc4C3=O)ccc21` (stereo not drawn) [AB27157], for which the figures for the IC50 in experiment [1] and in experiment [2] were 1530 nM and 6.32 µM, respectively.

For the compound `O=C(C[n+]1ccc(NCc2ccccc2)nc1)c1cccc(C(F)(F)F)c1` [AB27160], the IC50 in experiment [1] was found to be 744 nM; in experiment [2], 5.49 µM.

For `Cc1ccc2c(c1)CCC([n+]1ccc3c(c1)c(C)cn3Cc1ccccc1)C2=O` (stereo not drawn) [AB27177], the values for the IC50 in experiment [1] and in experiment [2] were 131 nM and 1.86 µM, respectively.

On to `Cc1ccc2c(c1)C(=O)C(n1ccc3c[n+](C(C)c4ccccc4)ccc31)CC2` (stereo not drawn) [AB27180], for which the IC50 in experiment [1] is 16 nM; in experiment [2], 0.222 µM.

With `CC(c1ccccc1)c1cn(C)c2c[n+](C3CCc4ccc(Cl)cc4C3=O)ccc12` (stereo not drawn) [AB27186], the IC50 came out at 1990 nM in experiment [1] and 5.69 µM in experiment [2].

As for `CC(c1ccccc1)[n+]1ccc2c(ccn2C2CCc3ccsc3C2=O)c1` (stereo not drawn) [AB27199], the IC50 in experiment [1] was found to be 446 nM; in experiment [2] it was 4.83 µM.

As for `Cc1nc2c(s1)C(=O)C(n1ccc3c[n+](C(C)c4ccccc4)ccc31)CC2` (stereo not drawn) [AB27203], the IC50 is 1940 nM in experiment [1] and 6.43 µM in experiment [2].

Take `Cc1nc2c(s1)C(=O)C([n+]1ccc3c(ccn3Cc3ccccc3)c1)CC2` (stereo not drawn) [AB27204]: the IC50 in experiment [1] came out at 3450 nM; in experiment [2] it was 13.4 µM.

As to `CC(c1ccccc1)[n+]1ccc2c(ccn2C2CCc3ccoc3C2=O)c1` (stereo not drawn) [AB27205], the figures for the IC50 in experiment [1] and in experiment [2] were 2790 nM and 9.49 µM, respectively.

Consider `O=C1c2occc2CCC1[n+]1ccc2c(ccn2Cc2ccccc2)c1` (stereo not drawn) [AB27206], for which the results for the IC50 in experiment [1] and in experiment [2] were 2540 nM and 7.62 µM, respectively.

For `O=C1c2cc(Cl)ccc2CCC1[n+]1ccc2c(ccn2C(=O)c2ccccc2)c1` (stereo not drawn) [AB27214], the IC50 in experiment [1] was 1740 nM; in experiment [2] it was 6.7 µM.

Consider `O=C1c2cc(Cl)ccc2CCC1[n+]1ccc2c(ccn2S(=O)(=O)c2ccccc2)c1` (stereo not drawn) [AB27215], for which the IC50 in experiment [1] worked out at 1610 nM; in experiment [2], 10.8 µM.

As to `CCC(=O)N(Cc1ccccc1)c1cc[n+](CC(=O)c2ccc(C)cc2)cc1` [AB27232], the concentration for half-maximal inhibition (IC50) in experiment [1] came to 290 nM; in experiment [2], 3.05 µM.

Take `CCCC(=O)N(Cc1ccccc1)c1cc[n+](CC(=O)c2ccc(C)cc2)cc1` [AB27234]: the IC50 in experiment [1] was 1270 nM; in experiment [2], 6.96 µM.

Turning to `Cc1ccc(C(=O)C[n+]2ccc(N(Cc3ccccc3)C(=O)C(C)C)cc2)cc1` [AB27235], the values for the IC50 in experiment [1] and in experiment [2] were 178 nM and 1.98 µM, respectively.

For the compound `CCc1cc(NCc2ccccc2)cc[n+]1CC(=O)c1ccc(C)cc1` [AB27236], the IC50 turned out to be 50 nM in experiment [1] and 0.822 µM in experiment [2].

Turning to `Cc1ccc(C(=O)C[n+]2ccc(NCc3ccccc3)cc2C(C)C)cc1` [AB27237], the figures for the IC50 in experiment [1] and in experiment [2] were 39 nM and 0.525 µM, respectively.

`Cc1ccc(C(=O)C[n+]2ccc(NCc3ccccc3)cc2C2CC2)cc1` [AB27238]: the IC50 in experiment [1] turned out to be 151 nM; in experiment [2], 1.15 µM.

As to `Cc1ccc(C[n+]2ccc3c(ccn3C3CCc4ccc(Cl)cc4C3=O)c2)cc1` (stereo not drawn) [AB27240], the IC50 in experiment [1] amounted to 15 nM; in experiment [2] it was 0.285 µM.

Regarding `Cc1cccc(C[n+]2ccc3c(ccn3C3CCc4ccc(Cl)cc4C3=O)c2)c1` (stereo not drawn) [AB27241], the IC50 was 14 nM in experiment [1] and 0.184 µM in experiment [2].

Turning to `Cc1ccccc1C[n+]1ccc2c(ccn2C2CCc3ccc(Cl)cc3C2=O)c1` (stereo not drawn) [AB27242], the IC50 in experiment [1] was 15 nM; in experiment [2], 0.204 µM.

Take `O=C1c2cc(Cl)ccc2CCC1n1ccc2c[n+](Cc3ccccc3Cl)ccc21` (stereo not drawn) [AB27243]: the results for the half-maximal inhibitory concentration (IC50) in experiment [1] and in experiment [2] were 15 nM and 0.184 µM, respectively.

In the case of `O=C1c2cc(Cl)ccc2CCC1n1ccc2c[n+](Cc3cccc(Cl)c3)ccc21` (stereo not drawn) [AB27244], the IC50 in experiment [1] was 24 nM; in experiment [2] it was 0.342 µM.

Take `O=C1c2cc(Cl)ccc2CCC1n1ccc2c[n+](Cc3ccc(Cl)cc3)ccc21` (stereo not drawn) [AB27245]: the figures for the IC50 in experiment [1] and in experiment [2] were 88 nM and 0.868 µM, respectively.

With `CCC(c1ccccc1)[n+]1ccc2c(ccn2C2CCc3ccc(Cl)cc3C2=O)c1` (stereo not drawn) [AB27246], the IC50 was 18 nM in experiment [1] and 0.308 µM in experiment [2].

With `O=C1c2cc(OC(F)(F)F)ccc2CCC1[n+]1ccc2c(ccn2CC2CC2)c1` (stereo not drawn) [AB27247], the IC50 in experiment [1] turned out to be 403 nM; in experiment [2] it was 1.65 µM.

Turning to `CCCCCn1ccc2c[n+](C3CCc4ccc(OC(F)(F)F)cc4C3=O)ccc21` (stereo not drawn) [AB27249], the IC50 in experiment [1] was found to be 222 nM; in experiment [2] it was 1.52 µM.

`CCCCCn1ccc2c[n+](C3CCc4ccc(Cl)cc4C3=O)ccc21` (stereo not drawn) [AB27250]: the figures for the IC50 in experiment [1] and in experiment [2] were 51 nM and 0.684 µM, respectively.

In the case of `O=C1c2cc(Cl)ccc2CCC1[n+]1ccc2c(ccn2CC2CC2)c1` (stereo not drawn) [AB27252], the IC50 in experiment [1] stood at 968 nM; in experiment [2], 3.69 µM.

For the compound `CCCn1ccc2c[n+](C3CCc4ccc(Cl)cc4C3=O)ccc21` (stereo not drawn) [AB27253], the IC50 amounted to 1680 nM in experiment [1] and 5.49 µM in experiment [2].

As to `O=C1c2sc(Cl)nc2CCC1[n+]1ccc2c(ccn2Cc2ccccc2)c1` (stereo not drawn) [AB27254], the IC50 in experiment [1] was determined as 3590 nM; in experiment [2], 12.7 µM.

As for `O=C(Cn1ccc2c[n+](Cc3ccccc3)ccc21)c1cccc(Cl)c1` [AB27258], the IC50 in experiment [1] is 14 nM; in experiment [2], 0.276 µM.

Regarding `Cc1cccc(C(=O)Cn2ccc3c[n+](Cc4ccccc4)ccc32)c1` [AB27259], the IC50 in experiment [1] is 18 nM; in experiment [2], 0.235 µM.
